Data reported in patent US20240150339A1, “Compounds and Their Use as PDE4 Activators” (Mironid Limited, priority 2021, published 2024).

Assays:
[1] = target: T1, PDE4D5 (Homo sapiens, UniProt Q08499); test: PDE assay, activation of full-length human PDE4D5 long form ([3H]cAMP radio-assay); format: biochemical; settings: for activation at 30 µM: 30 μM test compound, mean % increase in counts over basal activity
T1 construct: Using Full-Length Human PDE4 Isoforms: Long Forms PDE4D5, PDE4C3, PDE4B1 and Short Form PDE4B2; made in house; cytosol fraction of the cell lysate, not purified
T1 sequence (Q08499 1-745 isoform Q08499-6): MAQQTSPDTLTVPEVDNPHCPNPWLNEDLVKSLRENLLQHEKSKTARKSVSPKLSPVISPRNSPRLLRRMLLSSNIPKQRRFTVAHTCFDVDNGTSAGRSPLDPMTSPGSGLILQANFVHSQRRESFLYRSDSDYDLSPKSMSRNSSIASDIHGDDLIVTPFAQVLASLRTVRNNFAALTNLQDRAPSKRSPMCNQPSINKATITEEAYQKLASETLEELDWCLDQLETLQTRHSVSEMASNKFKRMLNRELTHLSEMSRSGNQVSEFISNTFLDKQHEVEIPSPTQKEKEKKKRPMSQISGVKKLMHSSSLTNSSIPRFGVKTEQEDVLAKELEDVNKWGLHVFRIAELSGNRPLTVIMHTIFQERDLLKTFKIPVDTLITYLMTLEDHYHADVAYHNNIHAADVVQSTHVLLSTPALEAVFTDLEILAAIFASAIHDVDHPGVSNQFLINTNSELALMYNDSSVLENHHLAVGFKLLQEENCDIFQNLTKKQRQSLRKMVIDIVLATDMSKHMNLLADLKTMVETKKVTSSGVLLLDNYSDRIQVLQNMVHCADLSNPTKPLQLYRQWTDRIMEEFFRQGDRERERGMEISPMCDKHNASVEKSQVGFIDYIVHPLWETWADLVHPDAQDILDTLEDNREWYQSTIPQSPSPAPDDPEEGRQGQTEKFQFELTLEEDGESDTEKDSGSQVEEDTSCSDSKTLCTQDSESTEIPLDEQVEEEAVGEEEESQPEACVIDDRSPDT
Text: Experiment 1: Measurement of Modulation of Enzyme Activity by PDE4 Long Form Activators of the Present Invention Using Full-Length Human PDE4 Isoforms: Long Forms PDE4D5, PDE4C3, PDE4B1 and Short Form PDE4B2
(Marchmont, R. J. and Houslay, M. D. Biochem. J. 187: 381-92, 1980)
For transient transfection of exogenous PDE4 long isoforms, HEK 293 cells were transfected with pcDNA3.1 or pDEST™ PDE4 expression vectors using Lipofectamine LTX/Plus reagent (Invitrogen) as outlined by the manufacturer.
Where stable cell lines were generated the clonal isolates were expanded to obtain cell lines that stably expressed the full-length human PDE4 long isoforms and the full length human PDE4B2 short isoform. These were called the HEK-PDE4D5, HEK-PDE4B1 and HEK-PDE4B2 cell lines, respectively.
HEK-PDE4D5 cells were seeded out in 100 mm plates and incubated at 37° C. in an atmosphere of 5% CO2, 95% air. Cell lysates were prepared using KHEM buffer [50 mM KCl, 10 mM EGTA, 50 mM HEPES (pH 7.2), 1.92 mM MgCl2].
To prepare the cell lysates, the 100 mm plates containing the cells were placed on ice and washed with ice-cold PBS (phosphate buffered saline, pH 7.4). KHEM buffer (500 μl) was added to the cells. Cells were then scraped off the plate and triturated using a needle (BD Microlance™ 0.8, 40 mm). The lysed cells were then centrifuged at 2000 rpm for 10 minutes to remove cell debris and the supernatant (cell lysate containing recombinant PDE4D5) was transferred to a fresh tube and kept on ice.
The cell lysate containing recombinant PDE4D5 was transferred into a centrifuge tube and placed into an ultracentrifuge (BECKMAN COULTER) and spun at high speed (100,000 g) for 30 minutes at 4° C. The cytosol fraction was then collected and its protein amount determined using a BCA protein assay.
PDE assays were performed in thin walled V-bottomed 96-well plates. The assays were performed at a final concentration of 10 mM Tris/5 mM MgCl2 μlus PDE4D5 cell lysate cytosol fraction, containing over-expressed PDE4D5, with and without test compound. The lysate/compound mix were incubated together for 15 min at room temperature on an orbital shaker prior to addition of [^3H] cAMP (final concentration 1 μM [^3H] cAMP; Perkin Elmer) to a final volume of 50 μl per reaction. The reactions were then incubated for 10 minutes at 30° C., terminated by heating for 2 min at 95° C. and allowed to cool. Snake venom (12.5 μl of 1 mg/ml; Crotalus atrox, Sigma) was then added and the plates were agitated and incubated for a further 15 minutes at 30° C. Dowex ion exchange resin (Sigma, chloride form, 200-400 mesh; 200 μl; prepared as a 1:1 Dowex: water stock, thoroughly re-suspended and diluted 2:1 with ethanol) was then added to each well and the plates incubated for 15 min at room temperature on an orbital shaker ensuring sufficient agitation for resin suspension (550 RPM). The reaction mixture was then transferred to a 96 well filter plate (Millipore; […] pore size) and filtered into a receiving 96-well plate to remove the dowex suspension. 30 μL of the filtered solution was then transferred to the wells of an Opti-plate (Perkin Elmer) 96 well assay plate and 120 μl of Microscint 40 scintillation fluid was added. The plate was then placed on an orbital shaker for 10 min at high speed (900 RPM) to mix the sample with scintillation fluid prior to quantitation using a plate based scintillation counter (Top-Count).
The % increase in counts in the presence of test compound at a particular concentration indicates the % increase in enzyme activity at that concentration.

[2] = system: m-IMCD3 cells; test: Inhibition of PGE2-stimulated in vitro cyst formation in 3D culture of m-IMCD3 cells; format: cell-based, mouse; settings: Mus musculus, mIMCD3, 144 h; 10 μM test compound; mean cyst area (%) compared to 100% for (DMSO + PGE2) and 0% for DMSO control; 100 nM PGE2; 6 days; read-out: % Cyst area after incubation with 10 μM test compound
In short: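 Mouse m-IMCD3 cells grown in 3D collagen I/Matrigel gels. From 18-24 h after plating, compound (0.1% DMSO) plus 100 nM PGE2 were added and replenished at 2-3 days. After 6 days, imaging gave mean cyst area, scaled to 100% for DMSO+PGE2 and 0% for DMSO alone.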

Cc1ccc(-c2nc3ccc(C(=O)NCc4ccc(Cl)cc4)cc3s2)cn1 [Example 11, N-(4-chlorobenzyl)-2-(6-methylpyridin-3-yl)benzo[d]thiazole-6-carboxamide]
activation at 30 µM [1]: 104%

O=C(N[C@H]1CCOc2ccccc21)c1ccc2nc(-c3ccc(C4CC4)nc3)sc2c1 [Example 27, (S)-N-(chroman-4-yl)-2-(6-cyclopropylpyridin-3-yl)benzo[d]thiazole-6-carboxamide]
activation at 30 µM [1]: 154%

Cc1cncc(-c2nc3ccc(C(=O)N[C@H]4c5ccccc5C[C@@H]4O)cc3s2)c1 [Example 41, N-((1S,2S)-2-hydroxy-2,3-dihydro-1H-inden-1-yl)-2-(5-methylpyridin-3-yl)benzo[d]thiazole-6-carboxamide]
activation at 30 µM [1]: 194%

Cc1ccc(-c2nc3ccc(C(=O)N[C@@H]4c5ccccc5C[C@@H]4O)cc3s2)cn1 [Example 20, N-((1R,2S)-2-hydroxy-2,3-dihydro-1H-inden-1-yl)-2-(6-methylpyridin-3-yl)benzo[d]thiazole-6-carboxamide]
activation at 30 µM [1]: 105%

Cc1ccncc1-c1nc2cc(C(=O)N[C@H]3CCOc4ccccc43)ccc2s1 [Example 66, (S)-N-(chroman-4-yl)-2-(4-methylpyridin-3-yl)benzo[d]thiazole-5-carboxamide]
activation at 30 µM [1]: 78% | Activation of PDE4D5 (FIG. 1) ([1]; concentration response, result in words): concentration-dependent activation

Cc1cncc(-c2nc3ccc(C(=O)N[C@H]4CCCc5ccccc54)cc3s2)c1 [Example 44, (S)-2-(5-methylpyridin-3-yl)-N-(1,2,3,4-tetrahydronaphthalen-1-yl)benzo[d]thiazole-6-carboxamide]
activation at 30 µM [1]: 87%

COc1cccc(CNC(=O)c2ccc3nc(-c4ccc(C)nc4)sc3c2)c1 [Example 16, N-(3-methoxybenzyl)-2-(6-methylpyridin-3-yl)benzo[d]thiazole-6-carboxamide]
activation at 30 µM [1]: 64%

O=C(N[C@H]1CCOc2ccccc21)c1ccc2nc(-c3ccc(C(F)F)nc3)sc2c1 [Example 64, (S)-N-(chroman-4-yl)-2-(6-(difluoromethyl)pyridin-3-yl)benzo[d]thiazole-6-carboxamide]
activation at 30 µM [1]: 64%

O=C(N[C@H]1CCCc2ccccc21)c1ccc2nc(-c3cccnc3)sc2c1 [Example 8, (S)-2-(pyridin-3-yl)-N-(1,2,3,4-tetrahydronaphthalen-1-yl)benzo[d]thiazole-6-carboxamide]
activation at 30 µM [1]: 82%

COc1ccc(CNC(=O)c2ccc3nc(-c4ccc(C)nc4)sc3c2)cc1 [Example 13, N-(4-methoxybenzyl)-2-(6-methylpyridin-3-yl)benzo[d]thiazole-6-carboxamide]
activation at 30 µM [1]: 93%

Cc1cncc(-c2nc3ccc(C(=O)N[C@H]4CCOc5ccccc54)cc3s2)c1 [Example 45, (S)-N-(chroman-4-yl)-2-(5-methylpyridin-3-yl)benzo[d]thiazole-6-carboxamide]
activation at 30 µM [1]: 102%

Cc1ccc(-c2nc3ccc(C(=O)NCc4cccc(F)c4)cc3s2)cn1 [Example 15, N-(3-fluorobenzyl)-2-(6-methylpyridin-3-yl)benzo[d]thiazole-6-carboxamide]
activation at 30 µM [1]: 99%

Cc1ccc(-c2nc3ccc(C(=O)N[C@@H]4CCc5ccccc54)cc3s2)cn1 [Example 18, (R)-N-(2,3-dihydro-1H-inden-1-yl)-2-(6-methylpyridin-3-yl)benzo[d]thiazole-6-carboxamide]
activation at 30 µM [1]: 142%

O=C(N[C@H]1CCOc2ccccc21)c1ccc2nc(-c3cncc(CO)c3)sc2c1 [Example 62, (S)-N-(chroman-4-yl)-2-(5-(hydroxymethyl)pyridin-3-yl)benzo[d]thiazole-6-carboxamide]
activation at 30 µM [1]: 133%

O=C(N[C@H]1CCOc2ccccc21)c1ccc2nc(N3CCCCC3)sc2c1 [Example 76, (S)-N-(chroman-4-yl)-2-(piperidin-1-yl)benzo[d]thiazole-6-carboxamide]
activation at 30 µM [1]: 57%

Cc1ccc(-c2nc3ccc(C(=O)NC4CCCC4)cc3s2)cn1 [Example 22, N-cyclopentyl-2-(6-methylpyridin-3-yl)benzo[d]thiazole-6-carboxamide]
activation at 30 µM [1]: 39%

Cc1cncc(-c2nc3ccc(C(=O)N[C@@H]4c5ccccc5C[C@H]4O)cc3s2)c1 [Example 42, N-((1R,2R)-2-hydroxy-2,3-dihydro-1H-inden-1-yl)-2-(5-methylpyridin-3-yl)benzo[d]thiazole-6-carboxamide]
activation at 30 µM [1]: 138%

Cc1ccc(-c2nc3ccc(C(=O)N[C@H]4CCOc5ccccc54)cc3s2)c(C)n1 [Example 26, (S)-N-(chroman-4-yl)-2-(2,6-dimethylpyridin-3-yl)benzo[d]thiazole-6-carboxamide]
activation at 30 µM [1]: 88%

O=C(N[C@H]1CCOc2ccccc21)c1ccc2nc(-c3ccncc3)sc2c1 [Example 54, (S)-N-(chroman-4-yl)-2-(pyridin-4-yl)benzo[d]thiazole-6-carboxamide]
activation at 30 µM [1]: 106%

Cc1ccc(-c2nc3ccc(C(=O)NCc4ccc(F)cc4)cc3s2)cn1 [Example 12, N-(4-fluorobenzyl)-2-(6-methylpyridin-3-yl)benzo[d]thiazole-6-carboxamide]
activation at 30 µM [1]: 58%

Cc1ccc(-c2nc3ccc(C(=O)NCc4cccc(Cl)c4)cc3s2)cn1 [Example 14, N-(3-chlorobenzyl)-2-(6-methylpyridin-3-yl)benzo[d]thiazole-6-carboxamide]
activation at 30 µM [1]: 120%

Cc1ccc(-c2nc3ccc(C(=O)N[C@@H]4c5ccccc5C[C@H]4O)cc3s2)cn1 [Example 21, N-((1R,2R)-2-hydroxy-2,3-dihydro-1H-inden-1-yl)-2-(6-methylpyridin-3-yl)benzo[d]thiazole-6-carboxamide]
activation at 30 µM [1]: 193%

Cc1ncccc1-c1nc2ccc(C(=O)NCc3cccc(F)c3)cc2s1 [Example 4, N-(3-fluorobenzyl)-2-(2-methylpyridin-3-yl)benzo[d]thiazole-6-carboxamide]
activity at 10 µM [2]: 6%

O=C(NC1CCC1)c1cc(Cl)c2nc(N3CCNCC3)sc2c1 [Example 234, 4-chloro-N-cyclobutyl-2-(piperazin-1-yl)benzo[d]thiazole-6-carboxamide]
activity at 10 µM [2]: 3%

Cc1cc(C(=O)N[C@H]2CCOc3ccccc32)c(C)c2sc(C3CCNCC3)nc12 [Example 230, (S)-N-(chroman-4-yl)-4,7-dimethyl-2-(piperidin-4-yl)benzo[d]thiazole-6-carboxamide]
activity at 10 µM [2]: 25%

COc1cc2nc(C3CCNCC3)sc2cc1C(=O)NC1CCOCC1 [Example 200, 5-methoxy-2-(piperidin-4-yl)-N-(tetrahydro-2H-pyran-4-yl)benzo[d]thiazole-6-carboxamide]
activity at 10 µM [2]: 3%

O=C(NC1CCC(F)(F)CC1)c1ccc2nc(N3C4CCC3CN(CCCO)C4)sc2c1 [Example 243, N-(4,4-difluorocyclohexyl)-2-(3-(3-hydroxypropyl)-3,8-diazabicyclo[3.2.1]octan-8-yl)benzo[d]thiazole-6-carboxamide]
activity at 10 µM [2]: 6%

O=C(N[C@H]1CCOc2c(F)cccc21)c1ccc2nc(N3CCNCC3)sc2c1 [Example 85, (S)-N-(8-fluorochroman-4-yl)-2-(piperazin-1-yl)benzo[d]thiazole-6-carboxamide]
activity at 10 µM [2]: -12%
